Like-named read-outs stand apart in the source and are kept apart here.
How the values were obtained:
[1] = Example 4-B body weight change, A549 xenograft study; type: in vivo, female nude mice (nu/nu); conditions: 10 mg/kg ip QD × 5/wk × 2 wks
Procedure: (§1) Cells were mixed with Matrigel (50% with exception for 30% in the H460) and 0.2 ml per mouse were subcutaneously implanted to the flank area of the animals. When tumor size reached 100-150 250 mm3, mice were randomized into experimental or vehicle groups with 10 mice/group and treatment was started (Day 1). The tested compounds were formulated in 5% DMSO in D5W. The regimens employed in the examples include IP, QD×5/wk (5 days on, 2 days off) as one cycle, for a total of 2 cycles; IP, once; IP, weekly for total 3 weeks; and IV, weekly for 3 weeks. Tumor growth and body weight were measured twice a week. Tumor volume was calculated as (length×width2)/2. Drug efficacy was assessed as Tumor Growth Inhibition (TGI) and Tumor Growth Delay (TGD). TGI was defined as (1−ΔT/ΔC)×100, where ΔT/ΔC presented the ratio of the change in mean (or median, if variation within the group was relatively large) tumor volume of the treated group and of the control group. TGD was calculated as the extra days for the treated tumor to reach 500 mm3 or 1000 mm3 as compared to the control group. Animals were culled when individual tumor size reached over 2000 mm3 or mean tumor volume exceeded 1000 mm3 in the group. Data are expressed as the mean±SEM. One-way analysis of variance with Dunnett post comparison test (GraphPad Prism 4) or two-tailed student's t-test were used for analysis. A P level <0.05 was considered statistically significant.
Antitumor effects of compounds provided herein were determined on A 549 non-small cell lung xenograft model in comparison with a chemotherapy agent, thiotepa. The dosing was as follows. Daily IP dosing: 5 doses then 2 days off then 5 more doses starting at 110 mm^3 tumors on day 1 (10 animals per group average tumor volume). The antitumor effects and the safety of administration are graphically illustrated below.

H460 cells = test: Proliferation assay in H460 cells (2 hr exposure, AlamarBlue); type: cell-based, human; conditions: Homo sapiens, NCI-H460, 2 hrs exposure, wash, 70 hrs growth, read-out: IC 50 in proliferation assay in H460 cells
Procedure, shortened: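 H460 cells seeded at 4×10^3/well, grown 24 h, then exposed to compound for 2 h at 37 °C. Drug was washed off and cells were regrown 70 h in fresh medium. Viable cells were read by AlamarBlue, and IC50 was taken as the concentration giving 50% growth inhibition.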

[2] = test system: A375 melanoma human tumor xenograft; test: Example 4-C antitumor efficacy, ectopic A375 melanoma xenograft model; type: in vivo, female nude mice (nu/nu); conditions: qd × 5 × 2, ip
Source text: (§2) Specific pathogen-free homozygous female nude mice (nu/nu, Charles River Laboratories) were used. Mice were given food and water ad libitum and housed in microisolator cages. Four to six week old animals were identified by microchips (Locus Technology, Manchester, Md., USA) at the time of the experiments. All animal studies were approved by the Institutional Animal Care and Use Committee at Threshold Pharmaceuticals, Inc.
(§3) All cell lines were from the American Type Culture Collection (ATCC, Rockville, Md., USA).
as §1
his study employed an A375 melanoma human tumor xenograft model and various compounds provided herein were compared to thiotepa and the approved anti melanoma drug, nab-Paclitaxel.

[3] = test system: A 549 non-small cell lung xenograft; test: Example 4-B antitumor efficacy, ectopic A549 NSCLC xenograft model; type: in vivo, female nude mice (nu/nu); conditions: 10 mg/kg ip QD × 5/wk × 2 wks
Source text: as §2, §3, §1
The dosing was as follows. Daily IP dosing: 5 doses then 2 days off then 5 more doses starting at 110 mm^3 tumors on day 1 (10 animals per group average tumor volume).
Doses were selected by first doing a toxicity test in CD1 mice as described above. The compounds were tested against Thio-tepa.

[4] = Pharmacokinetics in CD-1 mice following a single intraperitoneal dose (parent and TH2660); conditions: mouse, in vivo, ip, parent compound
Procedure: The pharmacokinetics of TH2873, TH2883, TH2888, TH2890, TH2901 and TH2926 were determined in CD-1 mice following a single intraperitoneal dose.
The pharmacokinetics of TH2660, the active metabolite, following a single intraperitoneal dose of TH2873, TH2883, TH2888, TH2890, TH2901 and TH2926 are shown below.

[5] = Example 4-C body weight change, A375 xenograft study; type: in vivo, female nude mice (nu/nu); conditions: 10 mpk, qd × 5 × 2, ip
Procedure: as §1
his study employed an A375 melanoma human tumor xenograft model and various compounds provided herein were compared to thiotepa and the approved anti melanoma drug, nab-Paclitaxel. The antitumor effects and the safety of administration are graphically illustrated below.

H460 NSCLC xenograft = test: Example 4-F antitumor efficacy, ectopic H460 NSCLC xenograft model; type: in vivo, female nude mice (nu/nu); conditions: ip
Source text: as §2, §3, §1
(§4) The compounds TH-2953 and TH-3040 were tested in a H460 model. The compounds were dosed as follows. A dose-dependent TH-2953 was given IP once, from 6.25 to 100 mg/kg, comparing with daily IP: 5 doses then 2 days off then 5 more doses starting at 100 mm^3 tumors on day 1 (10 animals per group average tumor volume). TH-3040 was administered IP once. The antitumor effects and the safety of administration are graphically illustrated below.

[6] = Pharmacokinetics of TH2953 in NU/NU mice with A549 and H460 xenografts; type: in vivo, Mouse/Nu-Foxn 1nu NU/NU mice; conditions: Nu-Foxn1nu NU/NU, mouse; for Kp: intraperitoneal, A549 tumor xenograft, 10 and 40 mg/kg ip; for AUC / Cmax / Tmax / half-life: plasma, ip
Procedure: The pharmacokinetics of TH2660, the active metabolite, following a single iintraperitoneal dose of TH2953 are shown below.
A549 and H460, following a single intraperitoneal dose of 10 and 40 mg/kg for A549 and 10 mg/kg for H460. TH2953 concentrations in the brain, liver and tumor were 55.0-73.8%, 297-541% and 2.08-8.34% of the concentrations in plasma in the A549 tumor xenograft. […] In the A549 xenograft, the preferential activation of TH2953 was more pronounced as the concentrations of TH2660 in the tumor were ˜5-7-fold greater than for TH2953, while they were only ˜13-15% in the liver.

[7] = Example 4-F body weight change, H460 xenograft study; type: in vivo, female nude mice (nu/nu); conditions: ip
Procedure: as §1, §4

A549 NSCLC xenograft = test: Example 4-D antitumor efficacy, ectopic A549 NSCLC xenograft model; type: in vivo, female nude mice (nu/nu); conditions: 40 mg/kg IP QD × 5/wk × 2 wks
Source text: as §2, §3, §1
(§5) The compounds were tested in another A549 model. The compounds were dosed as follows. Daily IP dosing: 5 doses then 2 days off then 5 more doses starting at 100 mm^3 tumors on day 1 (10 animals per group average tumor volume). The antitumor effects and the safety of administration are graphically illustrated below.

[8] = Example 4-D body weight change and lethal toxicity, A549 xenograft study; type: in vivo, female nude mice (nu/nu); conditions: 40 mg/kg IP QD × 5/wk × 2 wks
Procedure: as §1, §5

[9] = 10 mg/kg, TH2953 10 mg/kg single ip, A549 xenograft
[10] = 10 mg/kg, TH2953 10 mg/kg single ip, H460 xenograft
[11] = 40 mg/kg, TH2953 40 mg/kg single ip, A549 xenograft

**Q.** Which results are given for `CN(C)C(=O)c1cccc(Oc2cc(COP(=O)(N3CC3)N3CC3)ccc2[N+](=O)[O-])c1` [Compound 2889]?
**A.** Max. BW loss % [1]: 1.1%; IC50 (H460 cells): 3 nM; TGD 500 ([2]; 10 mpk): 13 days; TGD 1000 ([2]; 10 mpk): 15 days; inhibition in vivo at 10 mg/kg ([2]; Mus musculus, A-375, 10 mpk, read-out: TGI): 75.6%; TGD 500 [3]: 62 days; TGI [3]: 90.1%; AUC [4]: 598 ng·h/mL; Cmax [4]: 2480 ng/mL; Tmax [4]: 5 min; half-life [4]: 10.3 min; Max. BW loss % [5]: 0%

**Q.** For `CC(OP(=O)(N1CC1)N1CC1)c1ccc([N+](=O)[O-])c(Oc2ccc(-c3ccccc3)cc2)c1` (centres unmarked) [Compound 2953], which IC50 (H460 cells) is on record?
**A.** The IC50 was 5 nM.

**Q.** What about the “TGD 500” value (H460 NSCLC xenograft; 6.25 mpk, once) of the same compound?
**A.** Its value is 16 days.

**Q.** And the “TGD 1000” value (H460 NSCLC xenograft; 6.25 mpk, once)?
**A.** The value was 17 days.

**Q.** What about the TGI (H460 NSCLC xenograft; 6.25 mpk, once) of the same compound?
**A.** Its TGI is 72.2%.

**Q.** What about the “TGD 500” value (H460 NSCLC xenograft; 12.5 mpk, once) of the same compound?
**A.** Its value is 18 days.

**Q.** What about the “TGD 1000” value (H460 NSCLC xenograft; 12.5 mpk, once) of the same compound?
**A.** The value was 21 days.

**Q.** And the TGI (H460 NSCLC xenograft; 12.5 mpk, once)?
**A.** The TGI was 78.2%.

**Q.** What about the “TGD 500” value (H460 NSCLC xenograft; 25 mpk, once) of the same compound?
**A.** Its value is 18 days.

**Q.** What about the “TGD 1000” value (H460 NSCLC xenograft; 25 mpk, once) of the same compound?
**A.** The value was 20 days.

**Q.** And the TGI (H460 NSCLC xenograft; 25 mpk, once)?
**A.** Its TGI is 86.1%.

**Q.** And the “TGD 500” value (H460 NSCLC xenograft; 40 mpk, QD × 5/wk × 2ks)?
**A.** The value was 54 days.

**Q.** What about the “TGD 1000” value (H460 NSCLC xenograft; 40 mpk, QD × 5/wk × 2ks) of the same compound?
**A.** The value was 65 days.

**Q.** And the TGI (H460 NSCLC xenograft; 40 mpk, QD × 5/wk × 2ks)?
**A.** Its TGI is 105.8%.

**Q.** What about the “TGD 500” value (H460 NSCLC xenograft; 50 mpk, once) of the same compound?
**A.** The value was 19 days.

**Q.** And the “TGD 1000” value (H460 NSCLC xenograft; 50 mpk, once)?
**A.** Its value is 19 days.

**Q.** What about the TGI (H460 NSCLC xenograft; 50 mpk, once) of the same compound?
**A.** Its TGI is 90.4%.

**Q.** What about the “TGD 500” value (H460 NSCLC xenograft; 100 mpk, once) of the same compound?
**A.** Its value is 24 days.

**Q.** What about the “TGD 1000” value (H460 NSCLC xenograft; 100 mpk, once) of the same compound?
**A.** Its value is 27 days.

**Q.** What about the TGI (H460 NSCLC xenograft; 100 mpk, once) of the same compound?
**A.** The TGI was 97.7%.

**Q.** What about the Kp ([6]; brain (relative to plasma), read-out: concentration in the brain as % of the concentrations in plasma) of the same compound?
**A.** Its Kp is 0.55 to 0.738.

**Q.** And the Kp ([6]; liver (relative to plasma), read-out: concentration in the liver as % of the concentrations in plasma)?
**A.** Its Kp is 2.97 to 5.41.

**Q.** And the AUC [6, 9]?
**A.** Its AUC is 4430 ng·h/mL.

**Q.** And the Cmax [6, 9]?
**A.** Its Cmax is 149 ng/mL.

**Q.** And the Tmax [6, 9]?
**A.** The Tmax was 30 min.

**Q.** And the half-life [6, 9]?
**A.** Its half-life is 100 min.

**Q.** And the AUC [6, 10]?
**A.** Its AUC is 7400 ng·h/mL.

**Q.** And the Cmax [6, 10]?
**A.** The Cmax was 2330 ng/mL.

**Q.** What about the Tmax [6, 10] of the same compound?
**A.** Its Tmax is 15 min.

**Q.** And the half-life [6, 10]?
**A.** The half-life was 142 min.

**Q.** What about the AUC [6, 11] of the same compound?
**A.** The AUC was 39000 ng·h/mL.

**Q.** And the Cmax [6, 11]?
**A.** Its Cmax is 14800 ng/mL.

**Q.** What about the Tmax [6, 11] of the same compound?
**A.** The Tmax was 30 min.

**Q.** And the half-life [6, 11]?
**A.** The half-life was 91.3 min.

**Q.** And the Kp ([6]; tumor (relative to plasma), read-out: concentration in the tumor as % of the concentrations in plasma)?
**A.** Its Kp is 0.0208 to 0.0834.

**Q.** And the “Max. BW loss %” value ([7]; 6.25 mpk, once)?
**A.** Its value is 0.0%.

**Q.** What about the “Max. BW loss %” value ([7]; 12.5 mpk, once) of the same compound?
**A.** The value was 0.0%.

**Q.** What about the “Max. BW loss %” value ([7]; 25 mpk, once) of the same compound?
**A.** Its value is 0.2%.

**Q.** And the “Max. BW loss %” value ([7]; 40 mpk, QD × 5/wk × 2ks)?
**A.** Its value is 0.0%.

**Q.** What about the “Max. BW loss %” value ([7]; 50 mpk, once) of the same compound?
**A.** The value was 0.0%.

**Q.** What about the “Max. BW loss %” value ([7]; 100 mpk, once) of the same compound?
**A.** The value was 0.0%.

**Q.** And the “TGD 500” value (A549 NSCLC xenograft)?
**A.** The value was 64 days.

**Q.** And the TGI (A549 NSCLC xenograft)?
**A.** The TGI was 93.8%.

**Q.** And the “Max. BW loss %” value [8]?
**A.** Its value is 1.6%.

**Q.** And the “Lethal Tox” value ([8]; 10 animals per group)?
**A.** Its value is 0.

Reference: US10766914B2, “DNA alkylating agents” (OBI PHARMA, INC., priority 2015, dated 2020)
